Test results taken from patent publication US8637513B2, “Heterocycle phenyl amide T-type calcium channel antagonists” (Merck Sharp & Dohme Corp., priority 2007, dated 2014).

target: T1, T-type channel alpha1I (CaV 3.3) (Homo sapiens, UniProt Q9P0X4); assay: FLIPR Ca2+ Flux Assay; type: cell-based; settings: alpha1I subtype; read-out: FLIPR alpha1I IP
T1 construct: expressed in transfected cells; host or cells: HEK 293 cells, tetracycline-inducible expression
T1 sequence (Q9P0X4 whole entry): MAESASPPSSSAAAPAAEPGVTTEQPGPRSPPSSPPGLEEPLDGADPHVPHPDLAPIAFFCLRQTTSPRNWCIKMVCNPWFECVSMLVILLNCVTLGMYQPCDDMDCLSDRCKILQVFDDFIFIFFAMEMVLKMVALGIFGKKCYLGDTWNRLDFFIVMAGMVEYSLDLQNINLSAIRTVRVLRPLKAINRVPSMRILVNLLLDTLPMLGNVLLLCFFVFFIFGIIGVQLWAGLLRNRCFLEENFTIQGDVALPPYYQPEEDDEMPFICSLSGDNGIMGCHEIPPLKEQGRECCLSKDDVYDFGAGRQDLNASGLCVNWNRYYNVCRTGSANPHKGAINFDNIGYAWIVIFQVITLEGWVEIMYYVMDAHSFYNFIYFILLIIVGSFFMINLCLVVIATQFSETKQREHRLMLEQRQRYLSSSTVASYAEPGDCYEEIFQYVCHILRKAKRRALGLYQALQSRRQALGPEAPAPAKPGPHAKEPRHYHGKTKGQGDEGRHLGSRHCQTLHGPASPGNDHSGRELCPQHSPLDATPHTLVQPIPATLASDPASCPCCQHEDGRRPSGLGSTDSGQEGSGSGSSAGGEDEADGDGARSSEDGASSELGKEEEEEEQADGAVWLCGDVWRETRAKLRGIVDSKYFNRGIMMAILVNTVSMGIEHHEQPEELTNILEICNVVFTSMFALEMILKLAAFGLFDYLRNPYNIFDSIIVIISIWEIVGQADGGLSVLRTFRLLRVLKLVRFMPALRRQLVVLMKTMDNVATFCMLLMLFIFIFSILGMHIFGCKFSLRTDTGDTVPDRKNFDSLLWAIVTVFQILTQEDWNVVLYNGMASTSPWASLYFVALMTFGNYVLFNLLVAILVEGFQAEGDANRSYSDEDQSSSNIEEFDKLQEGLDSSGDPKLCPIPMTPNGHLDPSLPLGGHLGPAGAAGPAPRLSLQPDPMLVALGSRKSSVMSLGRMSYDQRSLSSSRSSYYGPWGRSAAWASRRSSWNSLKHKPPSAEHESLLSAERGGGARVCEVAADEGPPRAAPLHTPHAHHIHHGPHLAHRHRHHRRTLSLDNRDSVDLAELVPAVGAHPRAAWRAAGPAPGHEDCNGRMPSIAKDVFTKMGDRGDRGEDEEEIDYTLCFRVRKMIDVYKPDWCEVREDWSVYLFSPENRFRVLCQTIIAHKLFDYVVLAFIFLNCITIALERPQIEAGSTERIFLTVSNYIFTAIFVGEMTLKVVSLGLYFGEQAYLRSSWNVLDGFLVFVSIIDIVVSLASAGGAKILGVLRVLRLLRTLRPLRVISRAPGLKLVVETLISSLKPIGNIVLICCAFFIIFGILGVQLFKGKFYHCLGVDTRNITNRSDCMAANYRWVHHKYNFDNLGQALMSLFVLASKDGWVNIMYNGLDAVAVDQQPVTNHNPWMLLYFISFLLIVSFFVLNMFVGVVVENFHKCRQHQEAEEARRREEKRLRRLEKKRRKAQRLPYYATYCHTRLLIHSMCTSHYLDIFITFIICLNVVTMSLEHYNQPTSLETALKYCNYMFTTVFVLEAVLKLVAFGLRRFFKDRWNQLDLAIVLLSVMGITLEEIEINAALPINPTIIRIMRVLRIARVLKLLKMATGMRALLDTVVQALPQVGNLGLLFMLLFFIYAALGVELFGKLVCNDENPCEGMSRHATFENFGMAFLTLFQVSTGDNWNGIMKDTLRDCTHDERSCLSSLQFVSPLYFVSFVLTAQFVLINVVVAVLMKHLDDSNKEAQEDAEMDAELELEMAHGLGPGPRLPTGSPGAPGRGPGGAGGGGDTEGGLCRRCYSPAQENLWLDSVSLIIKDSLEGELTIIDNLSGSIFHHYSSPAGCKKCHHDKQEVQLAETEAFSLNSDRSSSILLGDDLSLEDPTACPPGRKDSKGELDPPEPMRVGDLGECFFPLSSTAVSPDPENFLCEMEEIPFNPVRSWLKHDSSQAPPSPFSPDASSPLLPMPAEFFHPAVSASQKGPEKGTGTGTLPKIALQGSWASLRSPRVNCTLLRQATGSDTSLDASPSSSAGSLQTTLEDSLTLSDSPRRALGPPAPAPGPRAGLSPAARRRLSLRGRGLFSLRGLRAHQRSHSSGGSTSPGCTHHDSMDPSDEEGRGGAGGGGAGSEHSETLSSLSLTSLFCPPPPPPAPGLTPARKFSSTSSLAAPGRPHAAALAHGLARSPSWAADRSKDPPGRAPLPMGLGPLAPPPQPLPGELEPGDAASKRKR

In order of rising IC50:
1. C[C@@H](NC(=O)Cc1ccc(-c2cnn3ncccc23)cc1)c1ccc(OCC(F)(F)F)cn1 [Example 4, 2-(4-Pyrazolo[1,5-b]pyridazin-3-ylphenyl)-N-{(1R)-1-[5-(2,2,2-trifluoroethoxy)pyridin-2-yl]ethyl}acetamide]  5 nM
2. C[C@@H](NC(=O)Cc1ccc(-c2cccc3cncnc23)cc1)c1ccc(OCC(F)(F)F)cn1 [Example 1, 2-(4-Quinazolin-8-ylphenyl)-N-{(1R)-1-[5-(2,2,2-trifluoroethoxy)pyridin-2-yl]ethyl}acetamide]  19 nM
3. Cc1nccnc1-c1ccc(CC(=O)N[C@H](C)c2ccc(OCC(F)(F)F)cn2)cc1 [Example 2, 2-[4-(3-methylpyrazin-2-yl)phenyl]-N-{(1R)-1-[5-(2,2,2-trifluoroethoxy)pyridin-2-yl]ethyl}acetamide]  24 nM
4. C[C@@H](NC(=O)Cc1ccc(-c2cnccn2)cc1)c1ccc(OCC(F)(F)F)cn1 [Example 5, 2-(4-Pyrazin-2-ylphenyl)-N-{(1R)-1-[5-(2,2,2-trifluoroethoxy)pyridin-2-yl]ethyl}acetamide]  30 nM
5. C[C@@H](NC(=O)Cc1ccc(-c2cc3ccccc3n2C)cc1)c1ccc(OCC(F)(F)F)cn1 [Example 3, 2-[4-(1-Methyl-1H-indol-2-yl)phenyl]-N-{(1R)-1-[5-(2,2,2-trifluoroethoxy)pyridin-2-yl]ethyl}acetamide]  36 nM
6. CC1=NOC(C)(c2ccc(CC(=O)N[C@H](C)c3ccc(OCC(F)(F)F)cn3)cc2)C1 (stereo partly drawn) [Example 7, 2-[4-(3,5-Dimethyl-4,5-dihydro-isoxazol-5-yl)phenyl]-N-{(1R)-1-[5-(2,2,2-trifluoroethoxy)pyridin-2-yl]ethyl}acetamide]  41 nM
7. C[C@@H](NC(=O)Cc1ccc(Oc2nccs2)cc1)c1ccc(OCC(F)(F)F)cn1 [Example 9]  46 nM
8. C[C@@H](NC(=O)Cc1ccc(-c2nccnc2C2CC2)cc1)c1ccc(OCC(F)(F)F)cn1 [Example 6, 2-[4-(3-Cyclopropylpyrazin-2-yl)phenyl]-N-{(1R)-1-[5-(2,2,2-trifluoroethoxy)pyridin-2-yl]ethyl}acetamide]  47 nM
9. C[C@@H](NC(=O)Cc1ccc(-n2nc(C3CC3)c3ccccc32)cc1)c1ccc(OCC(F)(F)F)cn1 [Example 10]  73 nM
10. C[C@@H](NC(=O)Cc1ccc(OC2CCOC2)cc1)c1ccc(OCC(F)(F)F)cn1 (stereo partly shown) [Example 8]  91 nM
